One data set concerns mice. The arrangement: method as in Maianti et al, Nature 2014. The note with it: ref Maianti et al, Nature 2014, cited from earlier work.
In data set [1] the target is T1, hIDE (Homo sapiens, UniProt P14735).
T1 construct: made in house
T1 sequence (P14735 1-1019): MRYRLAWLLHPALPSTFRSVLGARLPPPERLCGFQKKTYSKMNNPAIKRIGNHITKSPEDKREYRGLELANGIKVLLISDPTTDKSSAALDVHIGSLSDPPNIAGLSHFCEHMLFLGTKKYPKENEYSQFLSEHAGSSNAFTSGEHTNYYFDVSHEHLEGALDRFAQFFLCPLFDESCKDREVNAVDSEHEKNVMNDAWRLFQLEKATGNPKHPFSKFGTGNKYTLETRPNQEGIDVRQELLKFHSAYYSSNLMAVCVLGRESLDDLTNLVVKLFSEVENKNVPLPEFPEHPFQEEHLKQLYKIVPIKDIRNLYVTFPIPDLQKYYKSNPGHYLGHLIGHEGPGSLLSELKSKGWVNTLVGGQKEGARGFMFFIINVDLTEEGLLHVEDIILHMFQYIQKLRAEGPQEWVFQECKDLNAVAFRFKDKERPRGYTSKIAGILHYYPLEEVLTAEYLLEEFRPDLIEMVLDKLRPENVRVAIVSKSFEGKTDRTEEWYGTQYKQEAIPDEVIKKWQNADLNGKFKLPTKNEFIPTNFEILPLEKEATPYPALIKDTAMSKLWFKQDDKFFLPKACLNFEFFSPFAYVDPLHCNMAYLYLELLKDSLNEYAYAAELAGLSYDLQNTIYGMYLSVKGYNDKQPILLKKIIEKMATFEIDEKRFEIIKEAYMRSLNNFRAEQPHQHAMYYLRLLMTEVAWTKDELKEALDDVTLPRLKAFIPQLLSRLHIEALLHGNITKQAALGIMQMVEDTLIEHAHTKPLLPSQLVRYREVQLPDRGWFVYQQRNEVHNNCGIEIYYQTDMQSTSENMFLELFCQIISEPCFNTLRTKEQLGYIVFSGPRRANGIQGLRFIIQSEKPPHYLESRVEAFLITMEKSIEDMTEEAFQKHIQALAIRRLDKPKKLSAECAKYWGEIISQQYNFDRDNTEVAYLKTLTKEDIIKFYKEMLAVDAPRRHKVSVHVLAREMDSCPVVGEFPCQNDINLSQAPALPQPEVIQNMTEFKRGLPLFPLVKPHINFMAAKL
The experiment in a line: In vitro hIDE inhibition of Aβ16–23-based substrate hydrolysis. The class given is biochemical. Particulars: for inhibition at 100 µM: 100 µM (footnote c). As for the experimental part: In vitro IDE activity was measured with a quenched substrate […]. Human recombinant IDE was cloned and purified as previously described. […] All measurements were carried out as 8-point dose response curves and reported as the average of at least three independent measurements. […] Data analysis was performed using Xlfit v 5.0 and GraphPad Prism v 4.0. Nonlinear curve fitting and statistical analysis was done using built-in functions.

The target of data set [2] is T1, hIDE. Briefly: In vitro hIDE inhibition of insulin hydrolysis. Format: biochemical. Particulars: for IC50: full insulin substrate, value (CI 95%), mean of 3 to 10 experiments, read-out: IC50 insulin hydrolysis. As for the experimental part:
The enzymatic activity of hIDE was assayed quantifying the amount of insulin (Actrapid) at the end of the reaction. The quantity of insulin was determined using a Luminex kit (HMHMAG-34K, Millipore). 20 μl of WT IDE in Hepes buffer (50 mM with 100 mM NaCl, pH 7.4) at 1 μg ml^−1 were pre-incubated 10 min at ambient temperature with 20 μl of test compound or vehicle in 96-well microtiter plates (dark, non-binding surface). The reaction was then started by the addition of 40 μl of insulin at 40 nM. The final concentration of hIDE and substrate was 0.25 μg ml^−1 and 20 nM, respectively. Incubations were performed at ambient temperature for 10 min. The reaction was then stopped by addition of 80 μl of 200 mM EDTA. The samples were diluted by a factor of 3, and 15 μl were transferred to 96-well microtiter plates (dark, clear bottom, non-binding surface) containing 15 μl of assay buffer (from Luminex Kit). Fifteen microlitre of insulin magnetic beads were added. Incubation was performed during 16–18 h at 4 °C under agitation. Wells were washed three times and 30 μl of hormone panel antibodies were added. The samples were incubated 30 min at ambient temperature under agitation. 30 μl of strepdavidin-phycoerythrin were added. Incubation was performed 30 min at ambient temperature under agitation. Wells were washed three times and 80 μl of drive fluid were added. The plate was then read with the MagPix apparatus. Data analysis was performed using Xlfit v 5.0 and GraphPad Prism v 4.0. Nonlinear curve fitting and statistical analysis was done using equation 1: […]
where A is minimum value of y; B is range of y; C is the IC50 value and D is slope factor.

For data set [3], the system named is human SY5Y neuroblastoma cells. The experiment in a line: Aβ1–40 secretion by differentiated SH-SY5Y cells (ELISA). The class given is cell-based. The note with it: 10 μM and 30 μM, 48 h. As to the method: The human neuroblastoma cell lines SH-SY5Y were provided from ATCC (cat. no. crl2266) with a Certificate of Analysis and not checked in the lab for mycoplasma contamination. […] SH-SY5Y were seeded in a 96-well plate at 200,000 cells per cm^2. […] Differentiated cells were then incubated with compounds at 10 μM and 30 μM in presence of 0.1% DMSO.

Data set [4] has as its target T1, hIDE. The experiment in a line: 19F NMR ligand-observed interaction with the enzyme. The note with it: 5 μM enzyme. Format: binding. As for the experimental part: […] The carrier frequency was set at −100 p.p.m. with a spectral window of 40 ppm, and 4,024 scans were recorded per sample, except for the 6.25 μM sample for which 12,288 scans were recorded.

Turning to `NCCCC[C@@H]1NC(=O)/C=C/C(=O)N[C@H](C(N)=O)CCCCNC(=O)[C@@H](Cc2ccc(C(=O)c3ccccc3)cc2)NC(=O)[C@H](CC2CCCCC2)NC1=O` [6bK], in the data set on mice (IDE dependant, GLP-1 dependant, insulin driven), the “glucose tolerance in OGTT, 6bK” value is listed as “Improves glucose tolerance in OGTT”. Also, in the data set with mice (IDE dependant), the “glucose tolerance in IPGTT, 6bK” value is given as “Impairs glucose tolerance in IPGTT”. In the data set with mice, the “gluconeogenesis in a pyruvate tolerance test, 6bK” value is “Lowers gluconeogenesis” and the “insulin action in vivo (ITT), 6bK” value was “Augments insulin action in vivo”.

One may read the IC50 as the concentration that inhibits the measured activity by half. The melting point is the temperature of the solid-liquid transition. The molecule `O=C(C[C@@H](Cc1ccc2ccccc2c1)n1cc(CNC(=O)c2ccccc2)nn1)NO` [Compound 2] yielded a melting point of 192.8 to 194 °C. The molecule also returned an IC50 against hIDE [1] of 0.7 µM. Also, the IC50 on hIDE [2] came out at 0.51 µM.

Molecule `Cc1ccc(C(=O)NCc2cn([C@@H](CC(=O)NO)Cc3ccc4ccccc4c3)nn2)cc1` [Compound 3] came in with a melting point of 181.7 to 182.6 °C. Besides, inhibition against hIDE [1] was half-maximal at 2.7 µM (IC50). The concentration for half-maximal inhibition (IC50) on hIDE [2] turned out to be 6.7 µM.

As to `COc1ccc(C(=O)NCc2cn([C@@H](CC(=O)NO)Cc3ccc4ccccc4c3)nn2)cc1` [Compound 4], the melting point lay in the range of 178.3 to 179.6 °C. Further, the half-inhibitory concentration (IC50) against hIDE [1] is 4.5 µM. Besides, at hIDE [2], the IC50 was 3.4 µM.

In the case of `O=C(C[C@@H](Cc1ccc2ccccc2c1)n1cc(CNC(=O)C2CCCCC2)nn1)NO` [Compound 5], the melting point was 176.6 to 177.9 °C. The IC50 against hIDE [1] turned out to be 0.8 µM. For the same molecule, the IC50 on hIDE [2] is 0.44 µM.

With `O=C(C[C@@H](Cc1ccc2ccccc2c1)n1cc(CNC(=O)Cc2ccccc2)nn1)NO` [Compound 6], the values for the IC50 against hIDE [1] and on hIDE [2] were 3.2 µM and 0.74 µM, respectively.

For the molecule `Cc1ccc(CC(=O)NCc2cn([C@@H](CC(=O)NO)Cc3ccc4ccccc4c3)nn2)cc1` [Compound 7], the IC50 against hIDE [1] came to 12 µM; on hIDE [2] it was 2.3 µM.

`O=C(C[C@@H](Cc1ccc2ccccc2c1)n1cc(CNS(=O)(=O)c2ccc(F)cc2)nn1)NO` [Compound 9] gave a melting point of 157.1 to 158.7 °C. Also, on hIDE [1], the half-inhibitory concentration (IC50) turned out to be 5.7 µM. Besides, the concentration for half-maximal inhibition (IC50) on hIDE [2] was found to be 6 µM.

What is called inhibition is how much of the control response was suppressed. Lower therefore signals a weak effect. As to `Cc1ccc(C(=O)NCc2cn(C(CC(=O)NO)Cc3ccccc3)nn2)cc1` (centres unmarked) [Compound 10], on hIDE [1], the IC50 was above 100 µM and the inhibition at 100 µM is below 10%. For the same molecule, the IC50 on hIDE [2] turned out to be 6.1 µM. Besides, at hIDE [2] (relative to compound 1), the “fold less active than 1 against purified IDE” value is given as 100 fold. Moreover, the “Aβ1–40 in culture supernatants” value in data set [3] was “had no effect”.

On to `O=C(CC(Cc1ccc2ccccc2c1)c1nc(CNC(=O)c2ccccc2)no1)NO` (centres unmarked) [Compound 11], for which the 50% inhibitory concentration (IC50) against hIDE [1] was found to be 74 µM; on hIDE [2], 9.6 µM.

`O=C(C[C@@H](Cc1ccc2ccccc2c1)c1nc(CNC(=O)c2ccc(F)cc2)no1)NO` [Compound 12]: the half-inhibitory concentration (IC50) is 29 µM against hIDE [1] and 6.5 µM on hIDE [2].

For `O=C(O)C[C@@H](Cc1ccc2ccccc2c1)n1cc(CNC(=O)c2ccc(F)cc2)nn1` [Compound 14], the values for the IC50 against hIDE [1] and on hIDE [2] were above 100 µM and 30 µM, respectively.

As for `O=C(C[C@H](Cc1ccc2ccccc2c1)n1cc(CNC(=O)c2ccc(F)cc2)nn1)NO` [Compound 15], the IC50 against hIDE [1] stood at 2.8 µM; at hIDE [2] it was 2 µM.

Consider `O=C(C[C@@H](Cc1ccc2ccccc2c1)n1nncc1CNC(=O)c1ccc(F)cc1)NO` [Compound 16], for which the figures for the IC50 against hIDE [1] and on hIDE [2] were above 100 µM and 12.1 µM, respectively. At hIDE [1], the inhibition at 100 µM was below 10%. Also, on hIDE [4], the “19F NMR signal in the presence of enzyme at 2:1 or 1:1 compound:enzyme ratio” value is listed as “signal intensity remains detectable”.

As to `O=C(C[C@@H](Cc1ccc2ccccc2c1)n1nncc1CNC(=O)C1CCCCC1)NO` [Compound 17], the values for the IC50 against hIDE [1] and on hIDE [2] were above 100 µM and 30 µM, respectively. Also, the inhibition at 100 µM on hIDE [1] was below 10%.

As for `O=C(CC(Cc1ccccc1)n1cc(CNC(=O)c2ccc(F)cc2)nn1)NO` (centres unmarked) [Compound 19], the half-inhibitory concentration (IC50) against hIDE [1] was 80 µM; at hIDE [2] it was above 100 µM. Further, testing at 300 µM on hIDE [2] (300 µM (footnote d)) gave an inhibition of 50%.

Take `O=C(O)CN(CCN(CC(=O)O)CC(=O)O)CC(=O)O` [EDTA, reference compound]: at hIDE [1] (2 mM), the “inhibition of IDE by reference inhibitor” value is given as 100%.

Values taken from publication PMC4580987, “Catalytic site inhibition of insulin-degrading enzyme by a small molecule induces glucose intolerance in mice” (Nature Communications, 2015).
